Target: T1, PKG-1α (Homo sapiens, UniProt Q13976, Y247F)
T1 sequence (Q13976 2-671 Y247F): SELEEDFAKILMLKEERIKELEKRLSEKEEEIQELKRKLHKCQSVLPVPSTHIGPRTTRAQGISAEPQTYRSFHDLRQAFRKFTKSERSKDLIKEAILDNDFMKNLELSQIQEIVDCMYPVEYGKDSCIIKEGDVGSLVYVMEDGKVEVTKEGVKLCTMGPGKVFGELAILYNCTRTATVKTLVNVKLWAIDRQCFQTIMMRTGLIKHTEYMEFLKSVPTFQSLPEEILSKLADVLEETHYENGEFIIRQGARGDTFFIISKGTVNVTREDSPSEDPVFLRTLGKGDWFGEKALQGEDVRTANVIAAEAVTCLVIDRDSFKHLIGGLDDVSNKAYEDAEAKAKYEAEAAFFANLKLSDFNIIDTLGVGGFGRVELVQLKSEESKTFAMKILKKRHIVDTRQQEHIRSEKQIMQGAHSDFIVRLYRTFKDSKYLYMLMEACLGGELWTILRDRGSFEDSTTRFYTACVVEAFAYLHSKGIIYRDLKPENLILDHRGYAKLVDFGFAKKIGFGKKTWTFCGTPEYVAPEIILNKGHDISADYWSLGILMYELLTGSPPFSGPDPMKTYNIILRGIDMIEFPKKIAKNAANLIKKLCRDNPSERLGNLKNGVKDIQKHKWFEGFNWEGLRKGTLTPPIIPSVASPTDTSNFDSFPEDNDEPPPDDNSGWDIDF
Test: [3H]cGMP binding assay
Design: transfected with an expression plasmid containing a full length WT-PKG-1α cDNA; made in house; host or cells: HEK-293T (methods); the results paragraph b527 says PASMC
Conditions: SIN-1 500 μM 30 min
Experimental: HEK-293T cells were transiently transfected with either the WT-PKG-1α or the Y247FPKG-1α cDNA using Effectene transfection reagent (Qiagen), according to the manufacturer's instructions. Briefly, the cells were split the day before the transfection to low cell densities (25%) and were transfected 24 h later. After 48 h of transfection, the cells were incubated in DMEM serum free media containing 1% FBS and antibiotics for 4 h and then treated with or without SIN-1 (500 μM), for 30 min. This method produced an approximate 70% transfection efficiency of HEK-293T cells, as measured using green fluorescent protein vectors. […]
The batches of supernatant were pooled, and 2 μg of anti-PKG-1α antibody per mg of protein were added to the extract and rocked at 4° C. […] After 15 min of agitation at 4° C., the beads were pelleted by centrifugation, and the supernatant containing the PKG-1α protein was collected, quantified using Bradford reagent, and stored at −80° C.
To assay the binding of cGMP to WT- and Y247F-PKG-1α the enzymes were saturated with cGMP by incubating 50 μl aliquots of the diluted PKG constructs for 60 min at room temperature with 50 μl of [^3H]cGMP and 150 μl of cGMP-binding assay mixture (25 mM K2HPO4, 25 mM KH2PO4, 1 mM EDTA, pH 6.8, 2M NaCl, 200 μM 3-isobutyl-1-methylxanthine). […] The dissociation constant (Kd) values were determined using GraphPad Prism graphics.

Maximal [3H]cGMP binding to Y247F-PKG-1α: but not to the Y247F-PKG-1α mutant
Substance: 3-morpholinosydnonimine N-ethylcarbamide [SIN-1]

From patent US9447157B2, “Nitration shielding peptides and methods of use thereof” (Augusta University Research Institute, Inc., priority 2013, dated 2016)
